BigSolDB 2.1

Conditions: in ethylbenzene

CCCCCCCCCCCCCCCCCCCCCC
Conditions | solubility (mole fraction)
268.67 K | 0.00443
274.22 K | 0.00854
277.47 K | 0.0123
281.39 K | 0.0202
284.43 K | 0.0294
286.56 K | 0.0381
289.51 K | 0.0539
291.7 K | 0.0702
293.53 K | 0.0865
295.46 K | 0.107
296.91 K | 0.127
297.87 K | 0.143
298.81 K | 0.256
299.86 K | 0.171
300.54 K | 0.186
301.25 K | 0.198
302.03 K | 0.213
302.44 K | 0.226

CCCCCCCCCCCCCCCCCCCCCCC
Conditions | solubility (mole fraction)
271.13 K | 0.00366
280.09 K | 0.0136
285.88 K | 0.0295
288.62 K | 0.0415
292.61 K | 0.0698
295.02 K | 0.094
297.34 K | 0.124
298.77 K | 0.147
300.52 K | 0.173
300.9 K | 0.184

CCCCCCCCCCCCCCCCCCCCC
Conditions | solubility (mole fraction)
262.5 K | 0.0047
268.03 K | 0.01
275.53 K | 0.026
278.56 K | 0.0366
281.9 K | 0.0549
284.95 K | 0.0739
286.6 K | 0.095
288.45 K | 0.115
290 K | 0.14
291.15 K | 0.164
293.16 K | 0.201
294.57 K | 0.235
295.72 K | 0.263

CCCCCCCCCCCCCCCCCCCC
Conditions | solubility (mole fraction)
266.52 K | 0.00955
270.33 K | 0.0149
272.73 K | 0.0195
275.75 K | 0.0265
278.21 K | 0.0364
281.94 K | 0.0536
282.8 K | 0.0614
284.97 K | 0.0791
286.15 K | 0.0904
287.19 K | 0.104
288.25 K | 0.116
289.67 K | 0.136
290.53 K | 0.151
291.27 K | 0.164
292.34 K | 0.179
292.97 K | 0.191
293.9 K | 0.204

CCCCCCCCCCCCCCCCCCCCCCCC
Conditions | solubility (mole fraction)
272.02 K | 0.00269
279.76 K | 0.00689
285.62 K | 0.0142
289.1 K | 0.0224
292.74 K | 0.0346
296 K | 0.0511
299.02 K | 0.0732
301.52 K | 0.0997
303.08 K | 0.117
304.88 K | 0.144
306.15 K | 0.163
